Tests used:
OVA sensitized FVB mice = experiment: Allergic airway inflammation, BAL leukocyte differentials, comparison with Montelukast (FIG. 7); type: in vivo, mouse (FVB); design: dose or concentration left out as unconfirmed; conditions: days 14-17, at least 1 h prior to OVA aerosol; BAL day 18
Source text: FIG. 7. Depicts regulation of allergic airway inflammation by 15-epi,16-para-fluoro-phenoxy-LXA4-methyl ester in comparison to a commercially available drug (Montelukast) used to treat chronic asthma.
Five to seven week old male FVB (Charles River Laboratories, Wilmington, Mass.) mice were housed in isolation cages under viral antibody-free conditions. After Harvard Medical Area IRB approval (Protocol #02570), mice were sensitized with intraperitoneal injections of ovalbumin (OVA) (Grade III; Sigma Chemical Co., St. Louis, Mo.) (10 mg) plus 1 mg aluminum hydroxide (ALUM) (J. T. Baker Chemical Co.; Phillipsburg, N.J.) as adjuvant in 0.2 ml PBS on days 0 and 7. On days 14, 15, 16 and 17, the mice received an analog of LXA4 (15-epi,16-para-fluoro-phenoxy-LXA4-methyl ester) ([…], 21.7 nmoles), montelukast ([…], 21.7 nmoles) or PBS with 1.6 mM CaCl2 and 1.6 mM MgCl2 (0.1 ml) by intravenous injection at least 1 h prior to an aerosol challenge containing either PBS or 6% OVA for 25 min/day. On day 18, 24 h after the last aerosol challenge, bilateral bronchoalveolar lavage (BAL) (2 aliquots of 1 ml PBS plus 0.6 mM EDTA) was performed. BAL fluids were centrifuged (2000 g, 10 min) and cells were resuspended in HBSS, enumerated by hemocytometer, and concentrated onto microscope slides by cytocentrifuge (STATspin) (265 g). […]

OVA sensitized mice = experiment: Airway responsiveness to intravenous methacholine (lung resistance, ED200) in OVA sensitized and aerosol challenged mice; type: in vivo, mouse (BALB/c)
Description: FIG. 1. Inhibition of airway hyper-responsiveness with LXa. OVA sensitized mice were treated with LXa ([…]) (o) or vehicle (•) prior to OVA aerosol challenge. Airway reactivity was determined by methacholine-dependent change in lung resistance (a) and calculation of ED200 (b). Results are expressed as mean±SEM (n≧17 in (a) and n≧6 (b)). *P<0.05 by Student's t-test compared to control animals.
After systemic sensitization to ovalbumin (OVA, 10 μg i.p.), male Balb/c mice (5-7 weeks) were exposed to aerosolized OVA (6%, 25 min) on four successive days. 24 hours after the last aerosol, bronchial responsiveness to intravenous methacholine was determined (as in refs. 14, 15), bronchoalveolar lavage was performed and tissues were harvested for microscopy. […] After allergen sensitization and aerosol challenge, high levels of both CysLT (139.0+/−27.3 pg CysLT/ml, mean+/−SEM, n=9) and PGE2 (1117.7+/−103.8 pg PGE2/ml, mean+/−SEM, n=5) in bronchoalveolar lavage (BAL) (Table 1) were identified. In these same BAL fluids, LXA4 was also present (15.0+/−3.3 pg LXA4/ml, mean+/−SEM, n=5) at levels similar to LTB4 (6.4+/−2.3 pg LTB4/ml, mean+/−SEM, n=9), but in 10- to 100-fold lower concentrations than CysLT's and PGE2, respectively (Table 1). LXA4 was not detected in cell-free BAL supernatants from non-immunized mice.
Sensitization and challenge protocols. Five to seven week old male BALB/c (Charles River Laboratories, Wilmington, Mass.) or female hCD11b-hALX FvB transgenic mice were housed in isolation cages under viral antibody-free conditions. After Harvard Medical Area IRB approval (Protocol #02570), mice were sensitized with intraperitoneal injections of ovalbumin (OVA) (Grade III; Sigma Chemical Co., St. Louis, Mo.) (10 μg) plus 1 mg aluminum hydroxide (ALUM) (J.T. Baker Chemical Co.; Phillipsburg, N.J.) as adjuvant in 0.2 ml PBS on days 0 and 7. […] On day 18, 24 h after the last aerosol challenge, airway responsiveness to intravenous methacholine (33-1000 μg/kg) was measured, bilateral bronchoalveolar lavage (BAL) (2 aliquots of 1 ml PBS plus 0.6 mM EDTA) was performed and tissues (whole blood, lungs, mediastinal lymph nodes and spleen) were harvested for histological analysis. Lung resistance (RL) was measured using a sealed constant mass plethysmograph. […] For mice studied using a whole body plethysmograph to assess airway responsiveness (Buxco), each mouse was placed into a chamber and box pressure/time waveform was analyzed to yield the indicator of airflow obstruction, enhanced pause (Penh). […] Readings were initiated at 3 min and continued for 12 min. Peak and one min average Penh values were determined. Serum total IgE levels were determined by ELISA (Crystal Chem, Chicago, Ill.). […]

[1] = cited from earlier work

For `COC(=O)CCC[C@H](O)[C@H](O)/C=C/C=C/C=C\C=C\[C@H](O)COc1ccc(F)cc1` [LXa, 15-epi,16-para-fluoro-phenoxy-LXA4-methyl ester], the “lymphocyte reduction compared with Montelukast” value (OVA sensitized FVB mice) was “statistically more effective than Montelukast in terms of lymphocyte reduction”, the ED200 to methacholine (OVA sensitized mice; LXa 10 μg i.v., OVA sensitized and challenged mice) was “approximated the responses of control mice that had been sensitized but not challenged with OVA” and the “ED200 to methacholine, LXa administration alone” value (OVA sensitized mice; LXa alone, compared to control mice) was “no significant differences in ED200 compared to control mice”. The “bronchoconstriction in response to methacholine (change in lung resistance)” value (OVA sensitized mice; LXa i.v. at least 60 min prior to OVA challenge, OVA sensitized mice) was “significantly inhibited bronchoconstriction in response to methacholine in a dose-dependent manner”, the “deleterious physiologic or behavioral effects” value (OVA sensitized mice; LXa treated mice) was “Neither deleterious physiologic nor behavioral effects were evident” and the metabolic inactivation [1] was “resists metabolic inactivation”.
